According to patent US5143916A, “Naphthylpiperazines useful as 5-HT1A receptor ligands” (Adir et Compagnie, priority 1989, dated 1992):

What was measured:
[1] = Antihypertensive activity: arterial blood pressure and heart rate in anesthetized mongrel dogs (i.v.); type: in vivo
Experimental: Mongrel dogs (male and female) are anesthetized with phenobarbital (30 mg/kg i.v.) and then placed in artificial respiration (Bird Mark VII respirator). Arterial blood pressure is measured by means of a catheter placed in the abdominal aorta via the femoral artery. This catheter is connected to a pressure cell (Statham® R23 D6) linked to a recorder.
Heart rate is measured by means of a Gould Biotach®.
Sympathetic nervous activity is recorded from the renal nerve by means of a silver electrode. The amplified signal is visualized on an oscilloscope (Tektronix 5115®) and then measured in μV by means of a Gould integrator.

[2] = dog, in vivo; cited from earlier work
5-HT1A receptors = details: European Journal of Pharmacology, (1988), 149, p. 213-223; cited from earlier work

O=C(NCCN1CCN(c2cccc3c2OC[C@H](CO)O3)CC1)c1ccc(F)cc1 (racemic) [Flesinoxan, racemic]
Effect on arterial blood pressure ([1]; 10 μg/kg i.v.): 0 mm/Hg
Effect on heart rate ([1]; 10 μg/kg i.v.): 0 Beats/min.
Effect on heart rate ([1]; 30 μg/kg i.v.): 0 Beats/min.

O=C(NCCN1CCN(c2cccc3c2OC[C@H](CO)O3)CC1)c1ccc(F)cc1 (single isomer, unassigned) [Flesinoxan, (+) isomer]
Relative activity of flesinoxan isomers [2]: the more active isomer

O=C(NCCN1CCN(c2cccc3c2OC[C@H](CO)O3)CC1)c1ccc(F)cc1 [flesinoxan]
5-HT1A receptor agonist activity, antihypertensive properties (5-HT1A receptors): antihypertensive properties due to its 5-HT1A receptor agonist activity
